Assay results: patent US8557873B2, “Method for treating septic shock or endotoxemia” (priority 2009, dated 2013)
Entries after “also recorded” stand apart in the source; their conditions may differ.

Columns and labels:
[1] = test system: E. coli lipopolysacharide (LPS) induced septic shock/endotoxemia in male balb/c mice; test: Survival of mice injected with E. coli LPS, treated 30 minutes later with compound i.p., observed three days; format: in vivo; conditions: for Survival rate (%) / Survival/total mice: 30 min after LPS 0.4 mg i.p., three days; for Therapeutic effect compared to the other compounds or to recombinant APC: comparison in words; for Concentration with the best therapeutic effect: concentration in 1 ml injected i.p., effect goes down above it; for Best treatment volume: per body weight of the mouse
Description: The mice used in this invention were male balb/c having body weights around 20 g, five to six weeks old. Each mouse was intraperitoneally injected with E. coli lipopolysacharide (LPS) 0.4 mg in 1 ml sterile saline. After 30 minutes, each mouse was intraperitoneally injected with one of the following compounds: amylamine, isoamylamine, 2-methylbutamine, n-methylbutamine. The above compounds were dissolved in 1 ml sterile saline to be pH 7.4. The E. coli LPS was serotype 0111:B4 obtained from Sigma (St. Louis, Mo.).
(§1) Each mouse was intraperitoneally injected with E. coli lipopolysaccharide (LPS) 0.4 mg in 1 ml saline, and was then injected with 1 ml amylamine (represented by SS1) of different concentrations (0%, 0.1%, and 0.3%) 30 minutes later. […] The therapeutic effect goes down if the dose above 0.3%. The best treatment volume of amylamine is 0.15 ml/Kg body weight of the mouse.
as §1, with “lipopolysacharide” for “lipopolysaccharide”, “and” for “and was”, “isoamylamine” for “amylamine”, “SS2)” for “SS1)”, “0.1%.” for “0.3%.”, “0.05 ml/kg” for “0.15 ml/Kg”
as §1, with “lipopolysacharide” for “lipopolysaccharide”, “and” for “and was”, “2-methylbutamine” for “amylamine”, “SS3)” for “SS1)”, “0.1%.” for “0.3%.”, “0.05 ml/kg” for “0.15 ml/Kg”
Each mouse was intraperitoneally injected with E. coli lipopolysacharide (LPS) 0.4 mg in 1 ml saline, and then 30 minutes later injected with 1 ml n-methylbutamine (represented by SS9) of different concentrations (0%, 0.1%, 0.3% and 1.0%) 30 minutes later. […] The therapeutic effect goes down if the dose above 1.0%. The best treatment volume of n-methylbutamine is 0.5 ml/kg body weight of the mouse. The dose of SS9 above 1.0% is toxic to mouse.

[2] = test system: patients with severe sepsis; conditions: cited from earlier work

Compound	Survival rate (%) ([1]; 0.1% in 1 ml i.p.)	Survival/total mice ([1]; 0.1% in 1 ml i.p.)	Survival rate (%) ([1]; 0.3% in 1 ml i.p.)	Survival/total mice ([1]; 0.3% in 1 ml i.p.)	Therapeutic effect compared to the other compounds or to recombinant APC [1]	Concentration with the best therapeutic effect [1]	Best treatment volume [1]	Survival rate (%) ([1]; 1.0% in 1 ml i.p.)	Survival/total mice ([1]; 1.0% in 1 ml i.p.)	Dose toxic to mouse ([1]; concentration in 1 ml i.p.)	Absolute decrease in mortality [2]
CCCCCN [SS1, amylamine]	18%	3/17	53%	9/17	higher therapeutic effects and decreased mortality over recombinant APC	0.3%	0.15 mL/kg				
CC(C)CCN [SS2, isoamylamine]	83%	15/18	50%	9/18	more significant therapeutic effect; also recorded: higher therapeutic effects and decreased mortality over recombinant APC	0.1%	0.05 mL/kg				
CCC(C)CN (centres unmarked) [SS3, 2-methylbutamine]	53%	16/30	33%	10/30	higher therapeutic effects and decreased mortality over recombinant APC	0.1%	0.05 mL/kg				
CCCCNC [SS9, n-methylbutamine]	39%	5/13	54%	7/13	higher therapeutic effects and decreased mortality over recombinant APC	1.0%	0.5 mL/kg	62%	8/13	above 1.0%	
activated protein C											6.1%
